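1) Cells in 96-well plates. 2) Compound, 48 h, 5 concentrations. 3) Linear interpolation between surrounding doses. 4) Unreached endpoint = highest concentration. GI50 = concentration required for 50% inhibition of growth. TGI is the concentration that stops growth completely.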
Key:
Experiment in all cases: NCI anticancer screen, dose series, 48 h
HL-60(TB) leukemia = tested on: HL-60(TB) leukemia
OVCAR-4 ovarian = tested on: OVCAR-4 ovarian
OVCAR-8 ovarian = tested on: OVCAR-8 ovarian
RPMI-8226 leukemia = tested on: RPMI-8226 leukemia
SF-539 CNS = tested on: SF-539 CNS
SN12C renal = tested on: SN12C renal
SK-MEL-5 melanoma = tested on: SK-MEL-5 melanoma
SNB-75 CNS = tested on: SNB-75 CNS
TK-10 renal = tested on: TK-10 renal
MCF7 breast = tested on: MCF7 breast

SMILES | TGI (HL-60(TB) leukemia) | TGI (OVCAR-4 ovarian) | TGI (OVCAR-8 ovarian) | TGI (RPMI-8226 leukemia) | TGI (SF-539 CNS) | TGI (SN12C renal) | GI50 (HL-60(TB) leukemia) | GI50 (OVCAR-4 ovarian) | GI50 (OVCAR-8 ovarian) | GI50 (RPMI-8226 leukemia) | GI50 (SF-539 CNS) | GI50 (SK-MEL-5 melanoma) | TGI (SK-MEL-5 melanoma) | GI50 (SN12C renal) | GI50 (SNB-75 CNS) | TGI (SNB-75 CNS) | GI50 (TK-10 renal) | TGI (TK-10 renal) | GI50 (MCF7 breast) | TGI (MCF7 breast)
O=c1c2ccccc2nc(-c2cccc(Cl)c2)n1NCC1(O)OCC(O)C(O)C1O (configuration not stated) | > 100 µM | > 100 µM | > 100 µM | > 100 µM | > 100 µM | > 100 µM | – | – | – | – | – | – | – | – | – | – | – | – | – | –
Cc1ccc(Sc2sc(-c3ccccc3)nc2[P+](c2ccccc2)(c2ccccc2)c2ccccc2)cc1 | 0.521 µM | 1.09 µM | 1.67 µM | 0.523 µM | 1.47 µM | 1.1 µM | 0.194 µM | 0.305 µM | 0.305 µM | 0.178 µM | 0.375 µM | 0.172 µM | 0.313 µM | 0.323 µM | 0.21 µM | 0.759 µM | 0.336 µM | 1.64 µM | – | –
CC(=O)/C=C/c1ccc(C)cc1 | > 100 µM | > 100 µM | > 100 µM | > 100 µM | > 100 µM | > 100 µM | – | – | – | – | – | – | > 100 µM | – | – | > 100 µM | – | > 100 µM | – | –
O=C1CS/C(=N\S(=O)(=O)c2ccc(N3N=C4c5ccccc5CC4C3c3ccc(Cl)cc3)cc2)N1c1ccccc1 (configuration not stated) | 48.7 µM | – | > 100 µM | 88.7 µM | > 100 µM | > 100 µM | 23.1 µM | – | 34.6 µM | 26.4 µM | 60.2 µM | 32.2 µM | > 100 µM | 37.3 µM | – | – | 29.7 µM | > 100 µM | 18.7 µM | 47.9 µM
COc1cc(/C=C(\OC(C)=O)c2ccc3c(c2)OCO3)cc(OC)c1OC | > 100 µM | 51.8 µM | 33.9 µM | 76.6 µM | 38.8 µM | 88.1 µM | – | – | – | – | – | – | 24.5 µM | – | – | 46.7 µM | – | > 100 µM | – | –
Cc1ccc(Oc2ccc([N+](=O)[O-])cc2[N+](=O)[O-])c(C)c1 | 65.2 µM | > 100 µM | > 100 µM | 97.7 µM | > 100 µM | > 100 µM | – | – | – | – | – | – | 50 µM | – | – | > 100 µM | – | > 100 µM | – | –
Clc1ccc(Nc2ccnc(NCCCNc3ccnc4cc(Cl)ccc34)n2)cc1 | – | – | 3.62 µM | – | 3.19 µM | – | – | – | 1.82 µM | – | 1.67 µM | 1.4 µM | 2.75 µM | – | 1.23 µM | 2.5 µM | 1.94 µM | 3.41 µM | – | –
NC(CC1=CCC=CC1)C(=O)O (configuration not stated) | – | > 100 µM | > 100 µM | > 100 µM | – | > 100 µM | – | – | – | – | – | – | > 100 µM | – | – | > 100 µM | – | > 100 µM | – | > 100 µM
O=C(NCc1ccncc1)C1COc2cc(-c3cc(=O)c4ccccc4o3)ccc2O1 (configuration not stated) | > 100 µM | > 100 µM | > 100 µM | – | > 100 µM | > 100 µM | – | – | – | – | – | – | > 100 µM | – | – | > 100 µM | – | > 100 µM | – | –
O=C(/C=C/c1ccccc1Cl)c1ccc(Cl)cc1Cl | 46.3 µM | 29.7 µM | 29.3 µM | 37.5 µM | 38.5 µM | 32.2 µM | – | – | – | – | – | – | 28.6 µM | – | – | 37.4 µM | – | 31.7 µM | – | –
